Assay results taken from patent US20020120147A1, “Micronized torsemide” (priority 2000, published 2002).

Assays:
[1] = particle size after micronization in a micronizer; format: physicochemical; conditions: pure dry torsemide micronized in a micronizer (Example 1)
Description: Pure dry torsemide was micronized in a micronizer. The result was micronized torsemide of a particle size of less than 5 micrometer.

[2] = background statement; cited from earlier work

particle size [1] | SMILES | solubility in water [2]
less than 5 micrometer | Cc1cccc(Nc2ccncc2S(=O)(=O)NC(=O)NC(C)C)c1 [micronized torsemide, 1-Isopropyl-3-[(4-m-toluidino-3-pyridyl)sulfonyl] urea] | 
 | Cc1cccc(Nc2ccncc2S(=O)(=O)NC(=O)NC(C)C)c1 [Torsemide, 1-Isopropyl-3-[(4-m-toluidino-3-pyridyl)sulfonyl] urea] | essentially insoluble
